One test deals with K562 cells. As to the kind of experiment: MTS cell proliferation and viability test, K562 leukemia line. In kind it is cell-based, human. The note with it: incubating for 72 hours, read-out: IC50 (concentration which results in a 50% loss of cell proliferation and viability). How it is done:
[…]
(§1) The cell proliferation and viability were determined in a test using 3-(4,5-dimethylthiazol-2-yl)-5-(3-carboxymethoxyphenyl)-2-(4-sulfophenyl)-2H-tetrazolium (MTS) according to Fujishita T. et al., Oncology, 2003, 64 (4), 399-406. In this test, the mitochondrial ability of the living cells to convert MTS to a colored compound is measured after incubating for 72 hours a compound of formula (I) according to the invention. […]

The subject of a further test is MDA-MB231 cells. Nature of the test: MTS cell proliferation and viability test, MDA-MB231 breast cancer line. In kind it is cell-based, human. The conditions noted are these: incubating for 72 hours, read-out: IC50 (concentration which results in a 50% loss of cell proliferation and viability). How it is done:
[…]
as §1

Read-outs that look alike come from different tables or passages of the source.

As to `Cn1c(=O)c(-c2c(Cl)cccc2Cl)cc2cnc(Nc3ccc4c(c3)OC(CN)O4)nc21` (racemic) [Example 1, (R/S)-2-[[2-(aminomethyl)-1,3-benzodioxol-5-yl]amino]-6-(2,6-dichlorophenyl)-8-methyl-8H-pyrido[2,3-d]pyrimidin-7-one], the IC50 in the test with K562 cells (Homo sapiens) came out at 3 nM.
As for `CNC(=O)C1COc2ccc(Nc3ncc4cc(-c5c(Cl)cccc5Cl)c(=O)n(C)c4n3)cc2O1` (racemic) [Example 8, (R/S)-N-methylamide of 7-[6-(2,6-dichlorophenyl)-8-methyl-7-oxo-7,8-dihydropyrido[2,3-d]pyrimidin-2-ylamino]-2,3-dihydrobenzo[1,4]dioxin-2-carboxylic acid], the values for the IC50 in the test with K562 cells and in the test on MDA-MB231 cells were 20.5 nM and 183 nM, respectively.
For the compound `Cn1c(=O)c(-c2c(Cl)cccc2Cl)cc2cnc(Nc3ccc4c(c3)COC4)nc21` [Example 2, 6-(2,6-dichlorophenyl)-2-[(1,3-dihydro-5-iso-benzofuranyl)amino]-8-methyl-8H-pyrido[2,3-d]pyrimidin-7-one], the IC50 with MDA-MB231 cells is 10 nM.

The values are drawn from patent US7842806B2, “Pyridopyrimidone derivatives, preparation thereof, therapeutic use thereof” (sanofi-aventis, priority 2006, dated 2010).
